Broadly, the IC50 is the concentration needed to halve the response being measured. Low values mean greater potency in that assay, high ones weaker potency in that assay. One may read the inhibition as the drop in the measured response relative to a control, in per cent. A lower inhibition goes with a weak effect.

Each structure is given as a SMILES string.

This is an account of results in US12240844B2 (Voronoi, Inc., priority 2019, dated 2025).

Assay [1] concerns the target T1, LRRK2, LRRK2 (G2019S), DYRK1, CLK1 and TTK kinases (Homo sapiens, UniProt Q13627).
T1 construct: other: DYRK1; Kinase HotSpot service (Reaction Biology), ATP 10 uM
Kind of assay: Enzyme IC50 by Kinase HotSpot service (Reaction Biology Corporation), values marked with *. The class given is biochemical. Conditions: DYRK1, ATP 10 uM. The method in brief: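 Radiometric-service kinase assays (Reaction Biology HotSpot protocol) run at 10 uM ATP under uniform conditions. Compounds tested as 3-fold dilution series from a top concentration of […] to give IC50.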

For assay [2], the target named is T2, TTK (Homo sapiens, UniProt P33981).
T2 sequence (P33981 1-857): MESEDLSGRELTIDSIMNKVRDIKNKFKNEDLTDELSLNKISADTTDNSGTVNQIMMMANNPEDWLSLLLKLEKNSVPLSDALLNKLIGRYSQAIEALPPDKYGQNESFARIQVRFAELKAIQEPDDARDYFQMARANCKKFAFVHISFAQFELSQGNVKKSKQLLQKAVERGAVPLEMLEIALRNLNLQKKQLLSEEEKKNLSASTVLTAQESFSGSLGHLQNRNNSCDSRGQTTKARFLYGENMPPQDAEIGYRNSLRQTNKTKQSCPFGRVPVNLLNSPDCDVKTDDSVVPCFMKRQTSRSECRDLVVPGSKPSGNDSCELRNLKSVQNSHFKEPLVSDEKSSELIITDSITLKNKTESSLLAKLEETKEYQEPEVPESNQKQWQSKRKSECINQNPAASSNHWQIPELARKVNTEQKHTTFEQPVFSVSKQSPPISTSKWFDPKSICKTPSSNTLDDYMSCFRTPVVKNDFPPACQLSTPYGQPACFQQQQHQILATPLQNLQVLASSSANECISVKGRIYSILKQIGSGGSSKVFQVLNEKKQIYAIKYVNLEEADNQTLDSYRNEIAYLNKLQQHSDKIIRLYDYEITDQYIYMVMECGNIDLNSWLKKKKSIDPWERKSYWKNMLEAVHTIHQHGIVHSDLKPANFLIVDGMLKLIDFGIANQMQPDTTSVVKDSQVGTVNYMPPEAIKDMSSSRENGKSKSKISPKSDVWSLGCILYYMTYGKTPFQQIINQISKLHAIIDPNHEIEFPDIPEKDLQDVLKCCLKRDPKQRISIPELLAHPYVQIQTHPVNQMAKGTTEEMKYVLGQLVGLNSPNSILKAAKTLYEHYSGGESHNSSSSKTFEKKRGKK
As to the kind of experiment: scanMAX Kinase panel (DiscoverX), % control. To be noted: <35% = active. The arrangement: purchased DiscoverX. Type of assay: binding. The method, boiled down: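 Tested at 1 uM in DMSO across scanMAX kinases; % control referenced to vehicle and positive control, hit threshold <35%.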

In assay [3] the test system is human DYRK1A and Tau. As to the kind of experiment: Tau phosphorylation inhibition, ClariCELL Kinase Cell-Based Assay (Carnabio). The method, boiled down: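 HEK293 cells transiently expressing human DYRK1A and Tau were exposed to compound, then lysed. Released Tau was captured on plate and its phosphorylation quantified by ELISA with a phospho-Tau-specific antibody.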

Assay [4] addresses T3, MYLK (Homo sapiens, UniProt Q15746).
T3 construct: purchased DiscoverX
As to the kind of experiment: scanMAX Kinase panel (DiscoverX), % control. The class given is binding. Conditions: <35% = active. How it is done:
(§1) Specifically, for Examples 162, 160, 105, 217, 205, 96, 207, 184, 206, 221, 238, and 237 selected among the example compounds of the present invention, it was decided to measure enzyme (kinase) selectivity by DiscoverX, and the experiment was conducted using a panel for scanMAX™ Kinase analysis. At this time, the concentration of the drug treated with the enzyme was 1 uM in DMSO, the control percentage (% control) was determined in the same way as in Equation 1 below, and the results were shown in Table 6 below. [formula] Here, the positive control refers to a compound showing a control percentage of 0%, and the negative control is DMSO, indicating a control percentage of 100%. Also, in the enzyme selectivity of the present invention, if the control percentage for each enzyme was <35% (i.e., less than 35%), it was determined to have activity against the relevant enzyme.

Assay [5] deals with T4, ALK (C1156Y) (Homo sapiens, UniProt Q9UM73, C1156Y).
T4 construct: purchased DiscoverX
Kind of assay: scanMAX Kinase panel (DiscoverX), % control. The class given is binding. Conditions: <35% = active. How it is done: as §1

Assay [6] concerns the target T5, DYRK1A (Homo sapiens, UniProt Q13627).
T5 construct: purchased DiscoverX
As to the kind of experiment: scanMAX Kinase panel (DiscoverX), % control. Type of assay: binding. Conditions: <35% = active. How it is done:
as §1

Assay [7] concerns the target T6, CLK2 (Homo sapiens, UniProt P49760).
T6 construct: purchased DiscoverX
Kind of assay: scanMAX Kinase panel (DiscoverX), % control. The class given is binding. Conditions: <35% = active. How it is done: as §1

Assay [8] has as its target T7, ALK (L1196M) (Homo sapiens, UniProt Q9UM73, L1196M).
T7 construct: purchased DiscoverX
Kind of assay: scanMAX Kinase panel (DiscoverX), % control. The class given is binding. To be noted: <35% = active. How it is done: as §1

T6 sequence (P49760 whole entry): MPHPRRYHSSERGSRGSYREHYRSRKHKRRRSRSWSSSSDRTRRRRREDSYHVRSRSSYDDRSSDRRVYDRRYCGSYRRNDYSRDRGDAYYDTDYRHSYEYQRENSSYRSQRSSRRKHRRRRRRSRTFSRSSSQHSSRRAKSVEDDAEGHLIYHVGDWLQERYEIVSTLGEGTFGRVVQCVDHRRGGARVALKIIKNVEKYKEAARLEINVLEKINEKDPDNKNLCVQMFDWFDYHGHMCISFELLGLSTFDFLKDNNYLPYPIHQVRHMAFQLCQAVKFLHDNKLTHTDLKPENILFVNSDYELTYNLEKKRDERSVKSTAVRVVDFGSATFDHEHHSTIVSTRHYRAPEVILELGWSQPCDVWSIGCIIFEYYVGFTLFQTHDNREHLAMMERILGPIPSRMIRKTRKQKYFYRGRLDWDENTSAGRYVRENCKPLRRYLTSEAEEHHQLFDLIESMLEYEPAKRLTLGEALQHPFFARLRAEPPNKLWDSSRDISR
T4 sequence (Q9UM73 19-1620 C1156Y): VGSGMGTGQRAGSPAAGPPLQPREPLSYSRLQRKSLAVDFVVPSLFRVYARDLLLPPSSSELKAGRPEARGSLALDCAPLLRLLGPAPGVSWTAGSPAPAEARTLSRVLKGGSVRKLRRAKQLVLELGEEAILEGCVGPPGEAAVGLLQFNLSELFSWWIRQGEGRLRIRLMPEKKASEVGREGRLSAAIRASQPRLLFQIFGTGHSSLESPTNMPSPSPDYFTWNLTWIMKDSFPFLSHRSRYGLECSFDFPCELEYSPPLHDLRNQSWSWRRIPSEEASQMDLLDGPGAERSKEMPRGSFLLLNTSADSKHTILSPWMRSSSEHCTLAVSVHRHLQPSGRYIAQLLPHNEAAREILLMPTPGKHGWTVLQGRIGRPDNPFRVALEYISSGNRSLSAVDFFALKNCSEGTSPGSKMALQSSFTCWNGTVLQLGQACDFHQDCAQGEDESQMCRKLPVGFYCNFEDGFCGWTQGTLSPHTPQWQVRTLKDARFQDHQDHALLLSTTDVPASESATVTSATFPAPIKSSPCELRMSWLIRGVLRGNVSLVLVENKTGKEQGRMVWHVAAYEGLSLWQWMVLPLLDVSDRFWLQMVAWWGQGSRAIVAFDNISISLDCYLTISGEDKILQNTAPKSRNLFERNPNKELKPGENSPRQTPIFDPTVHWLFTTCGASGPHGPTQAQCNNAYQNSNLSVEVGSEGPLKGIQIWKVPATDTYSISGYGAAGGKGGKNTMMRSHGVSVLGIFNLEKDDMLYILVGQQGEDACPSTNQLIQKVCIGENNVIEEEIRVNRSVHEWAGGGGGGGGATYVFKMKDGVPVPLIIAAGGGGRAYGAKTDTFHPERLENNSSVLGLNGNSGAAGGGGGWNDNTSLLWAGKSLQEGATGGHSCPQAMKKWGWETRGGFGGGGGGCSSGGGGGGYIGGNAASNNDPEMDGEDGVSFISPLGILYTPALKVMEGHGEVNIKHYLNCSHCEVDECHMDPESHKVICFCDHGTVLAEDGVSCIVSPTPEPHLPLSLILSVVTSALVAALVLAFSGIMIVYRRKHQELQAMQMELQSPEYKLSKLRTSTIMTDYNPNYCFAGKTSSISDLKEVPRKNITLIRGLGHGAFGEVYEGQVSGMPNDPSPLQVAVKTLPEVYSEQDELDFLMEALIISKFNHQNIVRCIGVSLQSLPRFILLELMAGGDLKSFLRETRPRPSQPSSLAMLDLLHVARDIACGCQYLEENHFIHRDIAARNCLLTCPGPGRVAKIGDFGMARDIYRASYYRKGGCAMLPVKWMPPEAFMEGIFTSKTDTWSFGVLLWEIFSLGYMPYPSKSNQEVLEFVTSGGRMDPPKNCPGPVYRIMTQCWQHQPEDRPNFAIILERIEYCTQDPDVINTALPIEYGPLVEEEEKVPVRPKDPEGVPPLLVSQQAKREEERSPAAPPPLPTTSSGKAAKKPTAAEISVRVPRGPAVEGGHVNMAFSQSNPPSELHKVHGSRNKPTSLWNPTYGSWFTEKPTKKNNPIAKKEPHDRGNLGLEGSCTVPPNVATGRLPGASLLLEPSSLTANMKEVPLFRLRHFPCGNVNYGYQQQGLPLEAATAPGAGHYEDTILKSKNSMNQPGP
T3 sequence (Q15746 whole entry): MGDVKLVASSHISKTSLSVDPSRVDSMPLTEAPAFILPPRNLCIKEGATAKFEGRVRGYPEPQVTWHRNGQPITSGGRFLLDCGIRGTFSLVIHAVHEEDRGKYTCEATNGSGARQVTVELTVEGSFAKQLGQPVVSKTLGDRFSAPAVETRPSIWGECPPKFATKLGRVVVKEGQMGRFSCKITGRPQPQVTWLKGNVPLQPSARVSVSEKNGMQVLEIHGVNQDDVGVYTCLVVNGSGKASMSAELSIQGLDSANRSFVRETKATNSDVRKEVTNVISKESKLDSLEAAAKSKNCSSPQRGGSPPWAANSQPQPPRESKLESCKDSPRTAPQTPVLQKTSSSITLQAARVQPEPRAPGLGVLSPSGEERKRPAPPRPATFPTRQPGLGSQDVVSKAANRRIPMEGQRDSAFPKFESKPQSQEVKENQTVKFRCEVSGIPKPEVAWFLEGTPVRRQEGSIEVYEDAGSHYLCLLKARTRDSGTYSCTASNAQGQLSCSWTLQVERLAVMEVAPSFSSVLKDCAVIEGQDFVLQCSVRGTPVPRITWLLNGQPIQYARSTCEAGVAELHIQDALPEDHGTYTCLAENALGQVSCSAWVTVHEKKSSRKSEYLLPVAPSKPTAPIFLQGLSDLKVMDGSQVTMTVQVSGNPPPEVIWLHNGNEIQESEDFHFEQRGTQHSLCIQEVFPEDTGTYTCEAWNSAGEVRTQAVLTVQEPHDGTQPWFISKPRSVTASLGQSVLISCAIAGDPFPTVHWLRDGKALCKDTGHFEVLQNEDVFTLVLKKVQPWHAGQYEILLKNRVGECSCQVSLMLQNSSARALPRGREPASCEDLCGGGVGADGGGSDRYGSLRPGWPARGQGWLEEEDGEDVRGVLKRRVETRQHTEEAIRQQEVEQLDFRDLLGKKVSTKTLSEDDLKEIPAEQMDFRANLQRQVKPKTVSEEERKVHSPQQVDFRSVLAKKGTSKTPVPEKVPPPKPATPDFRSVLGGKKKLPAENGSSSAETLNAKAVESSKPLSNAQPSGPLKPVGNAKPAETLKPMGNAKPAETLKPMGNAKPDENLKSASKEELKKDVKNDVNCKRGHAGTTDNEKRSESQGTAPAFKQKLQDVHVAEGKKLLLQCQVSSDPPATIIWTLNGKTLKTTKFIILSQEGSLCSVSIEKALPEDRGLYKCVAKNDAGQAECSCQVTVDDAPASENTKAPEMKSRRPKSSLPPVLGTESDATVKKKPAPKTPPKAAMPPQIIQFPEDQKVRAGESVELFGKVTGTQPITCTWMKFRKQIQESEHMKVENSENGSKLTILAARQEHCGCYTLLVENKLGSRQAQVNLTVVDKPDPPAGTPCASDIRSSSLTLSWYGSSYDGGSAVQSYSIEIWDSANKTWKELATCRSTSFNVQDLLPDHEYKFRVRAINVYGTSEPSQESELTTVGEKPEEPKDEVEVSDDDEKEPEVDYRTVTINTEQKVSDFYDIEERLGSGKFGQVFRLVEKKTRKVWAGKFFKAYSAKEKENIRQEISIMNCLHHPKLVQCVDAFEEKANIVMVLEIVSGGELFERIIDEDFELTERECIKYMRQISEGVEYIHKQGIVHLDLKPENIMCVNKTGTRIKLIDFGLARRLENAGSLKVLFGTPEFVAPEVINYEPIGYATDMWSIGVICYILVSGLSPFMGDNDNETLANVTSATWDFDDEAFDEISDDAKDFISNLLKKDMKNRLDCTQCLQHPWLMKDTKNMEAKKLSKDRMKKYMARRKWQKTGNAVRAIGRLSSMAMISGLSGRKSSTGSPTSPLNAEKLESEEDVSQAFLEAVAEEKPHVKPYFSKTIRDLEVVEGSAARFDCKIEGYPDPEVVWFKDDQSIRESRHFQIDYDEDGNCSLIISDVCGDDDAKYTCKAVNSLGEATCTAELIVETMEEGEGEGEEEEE
T7 sequence (Q9UM73 19-1620 L1196M): as the sequence (Q9UM73 19-1620 C1156Y) above, with Y1138C, L1178M counted along it

Molecule `CNc1cc(Nc2ccc(S(=O)(=O)N3CCC(N4CCOCC4)CC3)cc2OC)nc2[nH]cc(C(F)(F)F)c12` [Example 184, N^6-(2-methoxy-4-((4-morpholinopiperidin-1-yl)sulfonyl)phenyl)-N^4-methyl-3-(trifluoromethyl)-1H-pyrrolo[2,3-b]pyridine-4,6-diamine] showed an IC50 in assay [1] of less than 100 nM. Besides, the remaining binding at 1 µM in assay [2] came to 0.35%; in assay [4], 8%; in assay [5], 7%; in assay [6], 0.1%; in assay [7], 0.3%; in assay [8], 23%. Also, at 0.25 µM the inhibition in assay [3] was 28.5%. This molecule yielded an inhibition at 0.5 µM in assay [3] of 58.2%. For the same molecule, the inhibition at 1 µM in assay [3] was determined as 76.1%.
In the case of `O=C(c1ccc(Nc2cc(C3CC3)c3c(C(F)(F)F)c[nH]c3n2)c2c1CCO2)N1CC[C@H](N2CCOCC2)C1` [Example 237, (S)-(7-((4-cyclopropyl-3-(trifluoromethyl)-1H-pyrrolo[2,3-b]pyridin-6-yl)amino)-2,3-dihydrobenzofuran-4-yl)(3-morpholinopyrrolidin-1-yl)methanone], the IC50 in assay [1] was less than 100 nM. Also, the remaining binding at 1 µM turned out to be 3.5% in assay [2]; 15% in assay [4]; 9.7% in assay [5]; 2.2% in assay [6]; 0% in assay [7]; 15% in assay [8]. In addition, the inhibition at 0.25 µM in assay [3] came out at 7.7%. In assay [3], the inhibition at 0.5 µM was 20.5%. Besides, at 1 µM the inhibition in assay [3] was 34.5%.
